Laboratory results taken from ChEMBL document CHEMBL4011581, “Interference with bile salt export pump function is a susceptibility factor for human liver injury in drug development” (Toxicol Sci, 2010).

Each molecule was assayed against Bile salt export pump (Homo sapiens, UniProt O95342) (assay: Inhibition of human BSEP expressed in fall armyworm sf9 cell plasma membrane vesicles assessed as reduction in vesicle-associated [3H]-taurocholate transport preincubated for 10 mins prior to ATP addition measured after 15 mins in presence of [3H]-taurocholate by topcount based membrane vesicle transport assay).
Assay type: ADME
Work on `CCCc1nc2c(C)cc(-c3nc4ccccc4n3C)cc2n1Cc1ccc(-c2ccccc2C(=O)O)cc1` yielded an IC50 of 16.2 µM.
In the case of `CC(C)CN(C[C@@H](O)[C@H](Cc1ccccc1)NC(=O)O[C@H]1CCOC1)S(=O)(=O)c1ccc(N)cc1`, the IC50 is reported as 25 to 45 µM.
`CNS(=O)(=O)Cc1ccc2[nH]cc(CCN(C)C)c2c1` was tested, and the IC50 was > 135 µM.
With `CC1=C(CC(=O)O)c2cc(F)ccc2/C1=C\c1ccc([S+](C)[O-])cc1` (configuration not stated) the IC50 was > 135 µM.
`O=C(O)c1ccccc1-c1c2ccc(=O)cc-2oc2cc(O)ccc12` was tested, and the IC50 was > 135 µM.
For `COc1ccccc1N1CCN(CCCNc2cc(=O)n(C)c(=O)n2C)CC1`, the IC50 was > 135 µM.
For `CC(=O)[C@H]1[C@H](C#N)C[C@H]2[C@@H]3CC=C4CC(O)CC[C@]4(C)[C@H]3CC[C@@]21C` (some centres not stated), the IC50 was > 135 µM.
In the case of `Cc1c(O)cccc1C(=O)N[C@@H](CSc1ccccc1)[C@H](O)CN1C[C@H]2CCCC[C@H]2C[C@H]1C(=O)NC(C)(C)C`, the IC50 is reported as 11.8 µM.
For `Nc1nc(N)c2nc(-c3ccccc3)c(N)nc2n1`, the IC50 was > 135 µM.
Work on `S=C=Nc1cccc2ccccc12` [1-NAPHTHYLISOTHIOCYANATE] yielded an IC50 of 60 to 75 µM.
With `CCN(CC)CCNC(=O)c1ccc(NC(C)=O)cc1` [ACECAINIDE] the IC50 was > 135 µM.
In the case of `CC(=O)Nc1ccc(O)cc1` [ACETAMINOPHEN], the IC50 is reported as > 135 µM.
In the case of `Nc1nc2c(ncn2COCCO)c(=O)[nH]1` [ACYCLOVIR], the IC50 is reported as > 135 µM.
In the case of `C=CCc1ccccc1OCC(O)CNC(C)C` (configuration not stated) [ALPRENOLOL], the IC50 is reported as > 135 µM.
With `NCC[C@H](O)C(=O)N[C@@H]1C[C@H](N)[C@@H](O[C@H]2O[C@H](CN)[C@@H](O)[C@H](O)[C@H]2O)[C@H](O)[C@H]1O[C@H]1O[C@H](CO)[C@@H](O)[C@H](N)[C@H]1O` [AMIKACIN] the IC50 was > 135 µM.
With `CN(C)CCC=C1c2ccccc2CCc2ccccc21` [AMITRIPTYLINE] the IC50 was > 135 µM.
`CCCCCC[C@H]1C(=O)O[C@H](C)[C@H](NC(=O)c2cccc(NC=O)c2O)C(=O)O[C@@H](C)[C@@H]1OC(=O)CC(C)C` [ANTIMYCIN A] showed an IC50 of 45 to 60 µM.
`Cc1cc(=O)n(-c2ccccc2)n1C` [ANTIPYRINE] was tested, and the IC50 was > 135 µM.
With `CN1CCc2cccc3c2[C@H]1Cc1ccc(O)c(O)c1-3` [APOMORPHINE] the IC50 was > 135 µM.
In the case of `CC(=O)Oc1ccccc1C(=O)O` [ASPIRIN], the IC50 is reported as > 135 µM.
With `CCc1oc2ccccc2c1C(=O)c1cc(Br)c(O)c(Br)c1` [BENZBROMARONE] the IC50 was 17.5 µM.
In the case of `C[C@H]1C[C@H]2[C@@H]3CCC4=CC(=O)C=C[C@]4(C)[C@@]3(F)[C@@H](O)C[C@]2(C)[C@@]1(O)C(=O)CO` [BETAMETHASONE], the IC50 is reported as > 135 µM.
For `O=C(O)CCNC(=O)c1ccccc1` [BETAMIPRON], the IC50 was > 135 µM.
In the case of `COc1ccccc1Oc1c(NS(=O)(=O)c2ccc(C(C)(C)C)cc2)nc(-c2ncccn2)nc1OCCO` [BOSENTAN], the IC50 is reported as 22 µM.
In the case of `CCCCNc1cc(C(=O)O)cc(S(N)(=O)=O)c1Oc1ccccc1` [BUMETANIDE], the IC50 is reported as > 135 µM.
`CS(=O)(=O)OCCCCOS(C)(=O)=O` [BUSULFAN] was tested, and the IC50 was > 135 µM.
`Oc1ccc2c(c1)[C@@]13CCCC[C@@]1(O)[C@@H](C2)N(CC1CCC1)CC3` [BUTORPHANOL] was tested, and the IC50 was > 135 µM.
`CC[C@@]1(O)C(=O)OCc2c1cc1n(c2=O)Cc2cc3ccccc3nc2-1` [CAMPTOTHECIN] was tested, and the IC50 was > 135 µM.
With `ClC(Cl)(Cl)Cl` [CARBON TETRACHLORIDE] the IC50 was > 135 µM.
With `C=CC1=C(C(=O)O)N2C(=O)[C@@H](NC(=O)/C(=N\OCC(=O)O)c3csc(N)n3)[C@H]2SC1` [CEFIXIME] the IC50 was > 135 µM.
With `O=C(O)CCCc1ccc(N(CCCl)CCCl)cc1` [CHLORAMBUCIL] the IC50 was > 135 µM.
Molecule `CNC1=Nc2ccc(Cl)cc2C(c2ccccc2)=[N+]([O-])C1` [CHLORDIAZEPOXIDE] has an IC50 of 25 to 45 µM.
`CN(C)CCC(c1ccc(Cl)cc1)c1ccccn1` (configuration not stated) [CHLORPHENIRAMINE] was tested, and the IC50 was > 135 µM.
`CN(C)CCCN1c2ccccc2Sc2ccc(Cl)cc21` [CHLORPROMAZINE] was tested, and the IC50 was > 135 µM.
`CCCNC(=O)NS(=O)(=O)c1ccc(Cl)cc1` [CHLORPROPAMIDE] was tested, and the IC50 was > 135 µM.
Work on `CC1(COc2ccc(CC3SC(=O)NC3=O)cc2)CCCCC1` (configuration not stated) [CIGLITAZONE] yielded an IC50 of 37.8 µM.
`C(=C\c1ccccc1)/CN1CCN(C(c2ccccc2)c2ccccc2)CC1` [CINNARIZINE] gave an IC50 of 15.7 µM.
`CC(C)(Oc1ccc(C2CC2(Cl)Cl)cc1)C(=O)O` (configuration not stated) [CIPROFIBRATE] was tested, and the IC50 was > 135 µM.
`CC(C)/N=c1\cc2n(-c3ccc(Cl)cc3)c3ccccc3nc-2cc1Nc1ccc(Cl)cc1` [CLOFAZIMINE] showed an IC50 of 12.9 µM.
Work on `CCOC(=O)C(C)(C)Oc1ccc(Cl)cc1` [CLOFIBRATE] yielded an IC50 of 60 to 75 µM.
In the case of `C[C@@H]1CCC[C@H](C)N1NC(=O)c1ccc(Cl)c(S(N)(=O)=O)c1` [CLOPAMIDE], the IC50 is reported as > 135 µM.
For `CN1CCN(C2=Nc3cc(Cl)ccc3Nc3ccccc32)CC1` [CLOZAPINE], the IC50 was > 135 µM.
In the case of `O=P1(N(CCCl)CCCl)NCCCO1` (configuration not stated) [CYCLOPHOSPHAMIDE ANHYDROUS], the IC50 is reported as > 135 µM.
`CNCCCN1c2ccccc2CCc2ccccc21` [DESIPRAMINE] was tested, and the IC50 was > 135 µM.
In the case of `C[C@@H]1C[C@H]2[C@@H]3CCC4=CC(=O)C=C[C@]4(C)[C@@]3(F)[C@@H](O)C[C@]2(C)[C@@]1(O)C(=O)CO` [DEXAMETHASONE], the IC50 is reported as > 135 µM.
For `CN1C(=O)CN=C(c2ccccc2)c2cc(Cl)ccc21` [DIAZEPAM], the IC50 was > 135 µM.
In the case of `CC1=NS(=O)(=O)c2cc(Cl)ccc2N1` [DIAZOXIDE], the IC50 is reported as > 135 µM.
In the case of `Cc1onc(-c2c(Cl)cccc2Cl)c1C(=O)N[C@@H]1C(=O)N2[C@@H]1SC(C)(C)[C@@H]2C(=O)O` [DICLOXACILLIN], the IC50 is reported as 45 to 60 µM.
For `CC(C)N(CCC(C(N)=O)(c1ccccc1)c1ccccn1)C(C)C` (configuration not stated) [DISOPYRAMIDE], the IC50 was > 135 µM.
For `COc1cccc2c1C(=O)c1c(O)c3c(c(O)c1C2=O)C[C@@](O)(C(=O)CO)C[C@@H]3O[C@H]1C[C@H](N)[C@H](O)[C@H](C)O1` [DOXORUBICIN], the IC50 was > 135 µM.
Work on `CCOc1ccc(/C=C2\NCCc3cc(OCC)c(OCC)cc32)cc1OCC` [DROTAVERINE] yielded an IC50 of 37 µM.
With `CC[C@H]1CN2CCc3cc(OC)c(OC)cc3[C@@H]2C[C@@H]1C[C@H]1NCCc2cc(OC)c(OC)cc21` [EMETINE] the IC50 was > 135 µM.
With `CCCCc1ncc(/C=C(\Cc2cccs2)C(=O)O)n1Cc1ccc(C(=O)O)cc1` [EPROSARTAN] the IC50 was > 135 µM.
`CCC(=O)O[C@H]1[C@H](O[C@@H]2[C@@H](C)[C@H](O[C@H]3C[C@@](C)(OC)[C@@H](O)[C@H](C)O3)[C@@H](C)C(=O)O[C@H](CC)[C@@](C)(O)[C@H](O)[C@@H](C)C(=O)[C@H](C)C[C@@]2(C)O)O[C@H](C)C[C@@H]1N(C)C` [ERYTHROMYCIN ESTOLATE] showed an IC50 of 13 µM.
For `Cc1ccc(-c2ncc(Cl)cc2-c2ccc(S(C)(=O)=O)cc2)cn1` [ETORICOXIB], the IC50 was 45 to 60 µM.
For `NC(N)=Nc1nc(CSCCC(N)=NS(N)(=O)=O)cs1` [FAMOTIDINE], the IC50 was > 135 µM.
With `CC(C)OC(=O)C(C)(C)Oc1ccc(C(=O)c2ccc(Cl)cc2)cc1` [FENOFIBRATE] the IC50 was 15.3 µM.
In the case of `CC(C)(C)NC(=O)[C@H]1CC[C@H]2[C@@H]3CC[C@H]4NC(=O)C=C[C@]4(C)[C@H]3CC[C@]12C` [FINASTERIDE], the IC50 is reported as 28.2 µM.
`COc1ccc(Cl)cc1[C@]1(F)C(=O)Nc2cc(C(F)(F)F)ccc21` [FLINDOKALNER] was tested, and the IC50 was > 135 µM.
In the case of `CCOC(=O)c1ncn2c1CN(C)C(=O)c1cc(F)ccc1-2` [FLUMAZENIL], the IC50 is reported as > 135 µM.
In the case of `O=c1[nH]cc(F)c(=O)[nH]1` [FLUOROURACIL], the IC50 is reported as > 135 µM.
For `CCOC(=O)Nc1ccc(NCc2ccc(F)cc2)nc1N` [FLUPIRTINE], the IC50 was 35.5 µM.
